Data reported in patent EP4806909A1, “GLP-1 COMPOUND, AND PREPARATION METHOD THEREFOR AND USE THEREOF” (Shenzhen Salubris Pharmaceuticals Co., Ltd., priority 2023, dated 2025).

Assays:
[1] = Pharmacokinetic experiment in rats; type: in vivo; settings: rat, plasma; SD rats, male, intravenous, 0.2 mg/kg, sampling to 72 hours
Description: Dulbecco's phosphate buffered saline (DPBS) (Batch No.: F2326001, Shanghai Aladdin Biochemical Technology Co., Ltd.). LC-MS instrument (Thermo TSQ Altis Plus).
SD rats: Male, 180-250g, purchased from Guangdong Vital River Laboratory Animal Technology Co., Ltd.
The test sample powder was accurately weighed and completely dissolved in Dulbecco's phosphate buffered saline free of Ca^2+/Mg^2+, mixed well to obtain a 0.1 mg/mL solution, and administered intravenously at a dose of 2 mL/kg.
After intravenous administration to the rats, approximately 200 µL of venous blood was collected into EDTA-K2 anticoagulant-coated EP tubes pre-dose and post-dose at 0, 0.5, 2, 5, 24, 48, and 72 hours . The blood was centrifuged at 12,000 rpm for 2 minutes. The plasma was collected and stored frozen at -20°C until analysis.
A certain amount of the test sample was accurately weighed and dissolved in DMSO to prepare a 2 mg/mL stock solution. An appropriate amount of the compound stock solution was accurately pipetted and diluted with an acetonitrile-aqueous solution (ACN:H2O=1:1) to prepare a series of standard solutions. […]
After determining the plasma drug concentration by LC-MS, the pharmacokinetic parameters in rats post-administration were calculated using a non-compartmental model with WinNonlin 6.1 software.

GLP-1 receptor = biological target: T1, GLP-1 receptor (Homo sapiens, UniProt P43220); experiment: GLP-1 activity assay (cAMP HTRF); type: cell-based; settings: U20S-GLP-1R stable transfected cell line, 30 minutes at 37°C
T1 construct: expressed in transfected cells
Description: The agonistic effect of the test substance on the GLP-1 receptor was determined using a U20S-GLP-1R stable transfected cell line and a HTRF detection method.
• 1. According to the experimental procedure of the cAMP-Gs Dynamic HTRF kit, the 5x Stimulation buffer (SB) provided in the kit was diluted to 1xSB with ddH2O. IBMX was added to the 1xSB solution to a final concentration of 500 µM to prevent degradation of cAMP. Then, a working solution of the test substance was prepared using 1xSB and subjected to a series of gradient dilutions. • 2. U2OS-GLP-1R cells were digested and collected. After resuspending and counting, the cell density was diluted to 2x10^6 cells/mL using 1xSB solution. Then, 5 µL per well was seeded into a 384-well cell culture plate, resulting in 10,000 cells per well. • 3. The test substances were added at different concentrations into the corresponding cell wells at 5 µL per well, and incubated in a 37°C incubator for 30 minutes. • 4. According to the steps provided by the cAMP-Gs Dynamic HTRF kit, cAMP standard solutions of different concentrations were prepared and added into the 384-well plate. • 5. The cAMP d2 reagent and Eu Cryptate antibody provided in the kit were diluted to 1x using Lysis & Detection Buffer. Then, d2 and Eu solutions were added to the 384-well plate, 5 µL each well. After incubation at room temperature for 2 hours, the plate was read using the HTRF module (665/620 nm) of a microplate reader, and experimental data was collected. • 6. A curve was plotted using the signal value versus the compound concentration. Curve fitting and EC50 calculation were performed using nonlinear regression of GraphPad Prism software. […] Table 2: GLP-1 Activity of the compounds

T1 sequence (P43220 24-463, species assumed): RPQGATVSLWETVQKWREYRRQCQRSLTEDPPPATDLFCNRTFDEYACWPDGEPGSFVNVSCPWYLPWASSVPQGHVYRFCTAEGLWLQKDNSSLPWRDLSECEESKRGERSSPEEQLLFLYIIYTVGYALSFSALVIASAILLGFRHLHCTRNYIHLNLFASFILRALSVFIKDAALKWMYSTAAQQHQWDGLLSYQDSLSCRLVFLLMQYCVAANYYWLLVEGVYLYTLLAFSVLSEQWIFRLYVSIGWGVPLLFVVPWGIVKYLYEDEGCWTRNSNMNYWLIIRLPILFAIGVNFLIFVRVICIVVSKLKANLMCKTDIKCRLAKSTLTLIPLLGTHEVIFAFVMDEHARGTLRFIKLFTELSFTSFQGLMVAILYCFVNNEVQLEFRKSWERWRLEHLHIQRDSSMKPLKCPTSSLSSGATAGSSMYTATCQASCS

Compound | AUC(0-t) [1] [µg·h/mL] | EC50 (GLP-1 receptor) [nM]
CC[C@H](C)[C@H](NC(=O)[C@H](Cc1ccccc1)NC(=O)[C@H](CCC(=O)O)NC(=O)[C@H](CCCCNC(=O)COCCOCCNC(=O)COCCOCCNC(=O)CC[C@H](NC(=O)CCCCCCCCCCCCCCCCC(=O)O)C(=O)O)NC(=O)[C@H](C)NC(=O)[C@H](C)NC(=O)[C@H](CCC(N)=O)NC(=O)CNC(=O)[C@H](CCC(=O)O)NC(=O)[C@H](CC(C)C)NC(=O)[C@H](Cc1ccc(O)cc1)NC(=O)[C@H](CO)NC(=O)[C@H](CO)NC(=O)[C@@H](NC(=O)[C@H](CC(=O)O)NC(=O)[C@H](CO)NC(=O)[C@@H](NC(=O)[C@H](Cc1ccccc1)NC(=O)[C@@H](NC(=O)CNC(=O)[C@H](CCC(=O)O)NC(=O)C(C)(C)NC(=O)[C@H](Cc1c[nH]cn1)NC(=O)CN(CCNC(=O)C[C@H](NC(=O)CCCCCCCCCCCCCCC(=O)O)C(=O)O)C(=O)CN)[C@@H](C)O)[C@@H](C)O)C(C)C)C(=O)N[C@@H](C)C(=O)N[C@@H](Cc1c[nH]c2ccccc12)C(=O)N[C@@H](CC(C)C)C(=O)N[C@H](C(=O)N[C@@H](CCCNC(=N)N)C(=O)NCC(=O)N[C@@H](CCCNC(=N)N)C(=O)NCC(=O)O)C(C)C [Example 2] | 101 | 9.3
CC[C@H](C)[C@H](NC(=O)[C@H](Cc1ccccc1)NC(=O)[C@H](CCC(=O)O)NC(=O)[C@H](CCCCNC(=O)COCCOCCNC(=O)COCCOCCNC(=O)CC[C@H](NC(=O)CCCCCCCCCCCCCCCCC(=O)O)C(=O)O)NC(=O)[C@H](C)NC(=O)[C@H](C)NC(=O)[C@H](CCC(N)=O)NC(=O)CNC(=O)[C@H](CCC(=O)O)NC(=O)[C@H](CC(C)C)NC(=O)[C@H](Cc1ccc(O)cc1)NC(=O)[C@H](CO)NC(=O)[C@H](CO)NC(=O)[C@@H](NC(=O)[C@H](CC(=O)O)NC(=O)[C@H](CO)NC(=O)[C@@H](NC(=O)[C@H](Cc1ccccc1)NC(=O)[C@@H](NC(=O)CNC(=O)[C@H](CCC(=O)O)NC(=O)C(C)(C)NC(=O)[C@H](Cc1c[nH]cn1)NC(=O)CN(CCOCCOCCNC(=O)CC[C@H](NC(=O)CCCCCCCCCCCCCCC(=O)O)C(=O)O)C(=O)CN)[C@@H](C)O)[C@@H](C)O)C(C)C)C(=O)N[C@@H](C)C(=O)N[C@@H](Cc1c[nH]c2ccccc12)C(=O)N[C@@H](CC(C)C)C(=O)N[C@H](C(=O)N[C@@H](CCCNC(=N)N)C(=O)NCC(=O)N[C@@H](CCCNC(=N)N)C(=O)NCC(=O)O)C(C)C [Example 3] |  | 15.7
CC[C@H](C)[C@H](NC(=O)[C@H](Cc1ccccc1)NC(=O)[C@H](CCC(=O)O)NC(=O)[C@H](CCCCNC(=O)COCCOCCNC(=O)COCCOCCNC(=O)CC[C@H](NC(=O)CCCCCCCCCCCCCCCCC(=O)O)C(=O)O)NC(=O)[C@H](C)NC(=O)[C@H](C)NC(=O)[C@H](CCC(N)=O)NC(=O)CNC(=O)[C@H](CCC(=O)O)NC(=O)[C@H](CC(C)C)NC(=O)[C@H](Cc1ccc(O)cc1)NC(=O)[C@H](CO)NC(=O)[C@H](CO)NC(=O)[C@@H](NC(=O)[C@H](CC(=O)O)NC(=O)[C@H](CO)NC(=O)[C@@H](NC(=O)[C@H](Cc1ccccc1)NC(=O)[C@@H](NC(=O)CNC(=O)[C@H](CCC(=O)O)NC(=O)C(C)(C)NC(=O)[C@H](Cc1c[nH]cn1)NC(=O)CN(CCOCCOCCNC(=O)C[C@H](NC(=O)CCCCCCCCCCCCCCC(=O)O)C(=O)O)C(=O)CN)[C@@H](C)O)[C@@H](C)O)C(C)C)C(=O)N[C@@H](C)C(=O)N[C@@H](Cc1c[nH]c2ccccc12)C(=O)N[C@@H](CC(C)C)C(=O)N[C@H](C(=O)N[C@@H](CCCNC(=N)N)C(=O)NCC(=O)N[C@@H](CCCNC(=N)N)C(=O)NCC(=O)O)C(C)C [Example 4] |  | 16.9
CC[C@H](C)[C@H](NC(=O)[C@H](Cc1ccccc1)NC(=O)[C@H](CCC(=O)O)NC(=O)[C@H](CCCCNC(=O)COCCOCCNC(=O)COCCOCCNC(=O)CC[C@H](NC(=O)CCCCCCCCCCCCCCCCC(=O)O)C(=O)O)NC(=O)[C@H](C)NC(=O)[C@H](C)NC(=O)[C@H](CCC(N)=O)NC(=O)CNC(=O)[C@H](CCC(=O)O)NC(=O)[C@H](CC(C)C)NC(=O)[C@H](Cc1ccc(O)cc1)NC(=O)[C@H](CO)NC(=O)[C@H](CO)NC(=O)[C@@H](NC(=O)[C@H](CC(=O)O)NC(=O)[C@H](CO)NC(=O)[C@@H](NC(=O)[C@H](Cc1ccccc1)NC(=O)[C@@H](NC(=O)CNC(=O)[C@H](CCC(=O)O)NC(=O)C(C)(C)NC(=O)[C@H](Cc1c[nH]cn1)NC(=O)CN(CCNC(=O)CC[C@H](NC(=O)CCCCCCCCCCCCCCC(=O)O)C(=O)O)C(=O)[C@@H]1CCCN1)[C@@H](C)O)[C@@H](C)O)C(C)C)C(=O)N[C@@H](C)C(=O)N[C@@H](Cc1c[nH]c2ccccc12)C(=O)N[C@@H](CC(C)C)C(=O)N[C@H](C(=O)N[C@@H](CCCNC(=N)N)C(=O)NCC(=O)N[C@@H](CCCNC(=N)N)C(=O)NCC(=O)O)C(C)C [Example 17] | 99.3 | 5.7
